This note sets out measurements from ChEMBL document CHEMBL1140015, “Pyrazolone methylamino piperidine derivatives as novel CCR3 antagonists” (Bioorg Med Chem Lett, 2007).

The structures appear in SMILES notation. ≈ marks a conversion by molar mass, not a printed value. Some results are limits rather than exact numbers.

The target of series [1] is T1, C-C chemokine receptor type 3 (Homo sapiens, UniProt P51677).
T1 sequence (P51677 whole entry): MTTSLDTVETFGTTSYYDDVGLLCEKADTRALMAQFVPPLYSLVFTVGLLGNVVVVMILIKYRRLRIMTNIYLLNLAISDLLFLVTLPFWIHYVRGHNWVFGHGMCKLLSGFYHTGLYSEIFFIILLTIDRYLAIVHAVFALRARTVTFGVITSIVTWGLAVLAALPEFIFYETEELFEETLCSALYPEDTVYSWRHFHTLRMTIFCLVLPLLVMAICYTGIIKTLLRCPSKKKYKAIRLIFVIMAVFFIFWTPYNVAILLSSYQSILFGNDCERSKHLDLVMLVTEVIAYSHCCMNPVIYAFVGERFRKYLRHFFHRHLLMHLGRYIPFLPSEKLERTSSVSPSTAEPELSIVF
Kind of series: Displacement of [125I]eotaxin from CCR3 receptor in human eosinophils.

Series [2] can be described thus: Metabolic stability in rat liver microsomes assessed as intrinsic clearance. The class given is ADME, Microsome. On the technique in general: Microsomes from liver hold many membrane-bound enzymes, among them those of drug oxidation.
Series [3] has as its system Hepatocyte. Description: Metabolic stability in rat hepatocytes after 2 hrs. The class given is ADME, cell-based.
Series [4] deals with Hepatocyte. Kind of series: Metabolic stability in rat hepatocytes after 19 hrs. The class given is ADME, cell-based.
Series [5] can be described thus: Solubility in water at pH 7.4.
The nature of series [6]: Permeability from apical to basolateral side of Caco-2 cell membrane. Conditions: human.
Series [7] deals with T1, C-C chemokine receptor type 3. Kind of series: Antagonist activity at human CCR3 receptor assessed as inhibition of calcium flux. The class given is functional. In general terms: A change in cytosolic calcium serves as a functional read-out for many receptors and channels.

Compound `Cc1c(CN(CCc2ccc(Cl)cc2)C2CCN(C(=O)c3c(F)cccc3F)CC2)c(=O)n(C2CCCCC2)n1C` displayed an IC50 in series [1] of 100 nM.
The compound `Cc1c(CN(CCc2ccccn2)C2CCN(C(=O)c3c(F)cccc3F)CC2)c(=O)n(-c2ccc(F)cc2)n1C` came in with an IC50 in series [1] of 1000 nM. Moreover, in series [2], the microsomal CLint was determined as 82 µL/min/mg. Moreover, the results for the Stability in series [3] and in series [4] were 35% and 78%, respectively.
With `Cc1c(CN(CCc2ccc(Cl)cc2)C2CCN(C(=O)c3c(F)cccc3F)CC2)c(=O)n(-c2ccc(N)cc2)n1C`, the IC50 in series [1] was found to be 79 nM.
The same measure, in the same setting: then `Cc1c(CN(CCc2ccc(Cl)cc2)C2CCN(C(=O)c3c(F)cccc3F)CC2)c(=O)n(-c2ccc(C#N)cc2)n1C`, with 158 nM; and `COc1ccc(-n2c(=O)c(CN(CCc3ccc(Cl)cc3)C3CCN(C(=O)c4c(F)cccc4F)CC3)c(C)n2C)cc1`, with 100 nM.
The compound `Cc1c(CN(CCc2ccc(Cl)cc2)C2CCN(C(=O)c3c(F)cccc3F)CC2)c(=O)n(-c2ccc(C(=O)O)cc2)n1C` registered an IC50 in series [1] of 2500 nM.
Still for that read-out and setting: the figure for `Cc1c(CN(CCc2ccc(Cl)cc2)C2CCN(C(=O)c3c(F)cccc3F)CC2)c(=O)n(-c2ccc(Cl)cc2)n1C` is 63 nM; for `COc1ccncc1-n1c(=O)c(CN(CCc2ccc(Cl)cc2)C2CCN(C(=O)c3c(F)cccc3F)CC2)c(C)n1C` it is 250 nM.
Turning to `Cc1c(CN(CCc2ccc(F)cc2)C2CCN(C(=O)c3c(F)cccc3F)CC2)c(=O)n(-c2ccc(F)cc2)n1C`, the concentration in solution in series [5] (solubility) was 100 µg/mL (≈ 172 µM). Moreover, the IC50 in series [1] was found to be 200 nM. The microsomal CLint in series [2] is 303 µL/min/mg.
The compound `Cc1c(CN(CCc2ccc(N)cc2)C2CCN(C(=O)c3c(F)cccc3F)CC2)c(=O)n(-c2ccc(F)cc2)n1C` gave a solubility in series [5] of 900 µg/mL (≈ 1560 µM). Besides, the Papp A→B in series [6] is under 1 ×10⁻⁶ cm/s. Also, the IC50 in series [1] came out at 2500 nM. Moreover, the microsomal CLint in series [2] is under 50 µL/min/mg. In addition, the values for the Stability in series [3] and in series [4] were 23% and 71%, respectively.
The compound `Cc1c(CN(CCc2ccc(Cl)cc2)C2CCN(C(=O)c3c(F)cccc3F)CC2)c(=O)n(-c2ccccc2)n1C` had an IC50 in series [1] of 32 nM.
For `Cc1c(CN(CCCCc2ccccc2)C2CCN(C(=O)c3cccc4ccccc34)CC2)c(=O)n(-c2ccccc2)n1C`, in series [1], the IC50 stood at 158 nM.
Regarding `Cc1c(CN(CCc2ccc(Cl)cc2)C2CCN(C(=O)c3c(F)cccc3F)CC2)c(=O)n(-c2ccc(F)cc2)n1C`, the solubility in series [5] worked out at 1 µg/mL (≈ 1.67 µM). For the same compound, the Papp A→B in series [6] amounted to 8.1 ×10⁻⁶ cm/s. The figures for the IC50 in series [7] and in series [1] were 16 nM and 20 nM, respectively. Also, the microsomal CLint in series [2] came out at 472 µL/min/mg. In addition, the Stability is 52% in series [3] and 95% in series [4].
`Cc1c(CN(CCc2ccc([N+](=O)[O-])cc2)C2CCN(C(=O)c3c(F)cccc3F)CC2)c(=O)n(-c2ccc(F)cc2)n1C`: in series [5], the concentration in solution (solubility) came to 100 µg/mL (≈ 165 µM). Moreover, the IC50 in series [1] turned out to be 6.3 nM. The intrinsic metabolic clearance (microsomal CLint) in series [2] was 235 µL/min/mg. Also, the results for the Stability in series [3] and in series [4] were 35% and 95%, respectively.
In series [5], `Cc1ccc(C(=O)N2CCC(N(CCc3ccc([N+](=O)[O-])cc3)Cc3c(C)n(C)n(-c4ccc(F)cc4)c3=O)CC2)c(C)n1` had a solubility of 1200 µg/mL (≈ 2000 µM). For the same compound, in series [1], the IC50 stood at 12 nM. Further, the microsomal CLint in series [2] stood at 79 µL/min/mg. Moreover, the Stability in series [3] is on record as 38%; in series [4], 94%.
The compound `Cc1c(CN(CCc2ccc([N+](=O)[O-])cc2)C2CCN(C(=O)c3ccccn3)CC2)c(=O)n(-c2ccc(F)cc2)n1C` came in with a solubility in series [5] of 1260 µg/mL (≈ 2200 µM). Also, the apparent permeability from apical to basolateral (Papp A→B) in series [6] amounted to 7.8 ×10⁻⁶ cm/s. This compound had an IC50 in series [1] of 12 nM. In series [2], the microsomal CLint is 62 µL/min/mg. Also, the Stability in series [3] was 29%; in series [4], 82%.
Compound `Cc1c(CN(CCc2ccc(S(N)(=O)=O)cc2)C2CCN(C(=O)c3c(F)cccc3F)CC2)c(=O)n(-c2ccc(F)cc2)n1C` displayed a solubility in series [5] of 400 µg/mL (≈ 623 µM). Also, the Papp A→B in series [6] is under 1 ×10⁻⁶ cm/s. In addition, the IC50 in series [1] was over 10000 nM. Also, the microsomal CLint in series [2] is under 50 µL/min/mg. Further, the Stability in series [3] worked out at 43%; in series [4], 86%.
Compound `CC(=O)Nc1ccc(-n2c(=O)c(CN(CCc3ccc(Cl)cc3)C3CCN(C(=O)c4c(F)cccc4F)CC3)c(C)n2C)cc1` registered an IC50 in series [1] of 400 nM.
In series [5], `Cc1c(CN(CCc2ccc(Cl)cc2)C2CCN(C(=O)c3cccc[n+]3[O-])CC2)c(=O)n(-c2ccc(F)cc2)n1C` registered a solubility of over 2000 µg/mL. This compound registered an apical-to-basolateral permeability (Papp A→B) in series [6] of 1.3 ×10⁻⁶ cm/s. In series [1], this compound returned an IC50 of 200 nM. Further, in series [2], the microsomal CLint was under 50 µL/min/mg. The Stability is listed as 15% in series [3] and 55% in series [4].
As for `Cc1c(CN(CCc2ccc(Cl)cc2)C2CCN(C(=O)c3c(F)cccc3F)CC2)c(=O)n(-c2ccc(N(C)C)cc2)n1C`, the IC50 in series [1] was determined as 100 nM.
Still for that read-out and setting: then `Cc1c(CN(CCc2ccc(Cl)cc2)C2CCN(C(=O)c3c(F)cccc3F)CC2)c(=O)n(-c2cnccc2Cl)n1C`, with 100 nM; and `Cc1c(CN(CCc2ccc(Cl)cc2)C2CCN(C(=O)c3c(F)cccc3F)CC2)c(=O)n(-c2cccc(F)c2)n1C`, with 100 nM.
Same read-out and setting: the figure for `Cc1c(CN(CCc2ccc(Cl)cc2)C2CCN(C(=O)c3c(F)cccc3F)CC2)c(=O)n(-c2ccccc2F)n1C` is 40 nM.
In series [1], `Cc1c(CN(CCc2ccc(Cl)cc2)C2CCN(C(=O)c3c(F)cccc3F)CC2)c(=O)n(-c2ccc(O)cc2)n1C` gave an IC50 of 100 nM.
Same read-out and setting: then `Cc1c(CN(CCc2ccc(Cl)cc2)C2CCN(C(=O)c3c(F)cccc3F)CC2)c(=O)n(-c2ccc([N+](=O)[O-])cc2)n1C`, with 100 nM.
In series [1], `Cc1c(CN(CCc2ccc(Cl)cc2)C2CCN(C(=O)c3c(F)cccc3F)CC2)c(=O)n(-c2ccccn2)n1C` gave an IC50 of 25 nM.
`Cc1c(CN(CCc2cccnc2)C2CCN(C(=O)c3c(F)cccc3F)CC2)c(=O)n(-c2ccc(F)cc2)n1C` had a solubility in series [5] of over 2000 µg/mL. Further, the IC50 in series [1] worked out at 2500 nM. In series [2], the intrinsic clearance (microsomal CLint) was 113 µL/min/mg.

Usually IC50 stands for the concentration that gives 50% inhibition. Usually microsomal CLint stands for a measure of how fast metabolising enzymes remove a compound, apart from limits set by blood flow. A word on the solubility: it is the dissolved amount per volume that the medium holds. What is called Papp A→B is how fast a substance crosses the layer from the apical side.
